Read-outs that look alike come from different tables or passages of the source. Values belong to the compound of their own block, whether it stands above or below them.
Tests used:
E. coli 250CF1 (Tem3) = test: microbe, parasite or virus in culture; assay type: cell-based; details: 24 hours at 37° C.; for MIC: Escherichia coli
Description: (§1) The operation is carried out as follows, using the so-called micro-dilution in liquid medium method.
(§2) A series of concentrations of the β-lactamine is prepared in the presence of a constant concentration (5 mg/l) of the product to be studied, each is then seeded with various bacterial strains.
(§3) After incubation for 24 hours in a heating chamber at 37° C., the growth inhibition is evaluated by the absence of any bacterial development, which allows the minimal inhibitory concentrations (MIC) for each strain to be determined, expressed in milligrams/l.

E. coli 250HT21 (Tem1) = test: MIC, micro-dilution in liquid medium, β-lactamine with product at 5 mg/l; assay type: cell-based; details: 24 hours at 37° C.; for MIC: Escherichia coli
Description: as §1, §2, §3

[1] = system: E. cloacae 293HT6 (Class C); test: as above; assay type: cell-based; details: 24 hours at 37° C.; for MIC: Enterobacter cloacae
Description: as §1, §2, §3

[2] = system: E. coli 250HT23 (Class D); test: as above; assay type: cell-based; details: 24 hours at 37° C.; for MIC: Escherichia coli
Description: as §1, §2, §3

E. coli 250HT26 (SHV1) = test: as above; assay type: cell-based; details: 24 hours at 37° C.; for MIC: Escherichia coli
Description: as §1, §2, §3

E. coli 250SJ1 (Tem7) = test: as above; assay type: cell-based; details: 24 hours at 37° C.; for MIC: Escherichia coli
Description: as §1, §2, §3

E. coli 250BE1 (SHV4) = test: as above; assay type: cell-based; details: 24 hours at 37° C.; for MIC: Escherichia coli
Description: as §1, §2, §3

[3] = system: S. aureus 011GO66 (PeniR); test: as above; assay type: cell-based; details: 24 hours at 37° C.; for MIC: Staphylococcus aureus
Description: as §1, §2, §3

E. coli 250HT22 (Tem2) = test: as above; assay type: cell-based; details: 24 hours at 37° C.; for MIC: Escherichia coli
Description: as §1, §2, §3

β-lactamase P99 = biological target: T1, β-lactamase P99 (Enterobacter cloacae, UniProt P05364); test: biochemical; details: 100 μM Nitrocefin, 50 mM sodium phosphate buffer pH7.0, 37° C.; read-out: IC50 nM/P99
T1 construct: The β-lactamases are isolated from bacterial strains which are resistant to penicillins and cephalosporins; endogenous in cells; host or cells: Enterobacter cloacae 293HT6 (natural producer; French-press lysate, 100,000 g supernatant)
T1 sequence (P05364 21-381): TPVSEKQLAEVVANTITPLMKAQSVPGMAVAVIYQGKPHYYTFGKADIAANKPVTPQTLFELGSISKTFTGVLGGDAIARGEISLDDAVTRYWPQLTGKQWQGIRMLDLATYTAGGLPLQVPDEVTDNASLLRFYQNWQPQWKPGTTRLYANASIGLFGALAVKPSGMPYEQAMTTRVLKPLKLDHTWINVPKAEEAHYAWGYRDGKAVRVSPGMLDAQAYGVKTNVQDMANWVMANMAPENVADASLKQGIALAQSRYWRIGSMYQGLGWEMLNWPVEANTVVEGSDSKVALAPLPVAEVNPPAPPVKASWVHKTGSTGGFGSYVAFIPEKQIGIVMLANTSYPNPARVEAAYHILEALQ
Description: (§4) A. Preparation of the β-lactamases Tem-1 and P99
(§5) The β-lactamases are isolated from bacterial strains which are resistant to penicillins and cephalosporins (Tem1 and P99 are produced by E.coli 250HT21 and E.Cloacae 293HT6 respectively).
(§6) The bacteria are cultured at 37° C. in heart-brain culture at 37 g/l (DIFCO). They are harvested at the end of the exponential phase, cooled down and centrifuged. The bacterial pellets are taken up in sodium phosphate buffer 50 mM, pH 7.0 and centrifuged again. The bacteria are taken up in two volumes of the same buffer and lyzed using a French-Press maintained at 4° C. After centrifugation for 1 hour at 100,000 g, at 4° C., the supernatants containing the soluble fraction of the bacterial extracts are recovered and frozen at −80° C.
(§7) The method uses Nitrocefin (OXOID), cephalosporin chromogene as substrate, of which the product hydrolyzed by the B-lactamases is red and absorbs at 485 nm. Beta-lactamase activity is determined kinetically by measurement of the absorbance variation at 485 nm resulting from the hydrolysis of the substrate using a plate spectrophotometer (Spectra Max More Molecular Devices). The experiments are carried out at 37° C. The quantity of enzyme was normalized and the measurements are carried out at initial speed.
(§8) Two measurements were carried out, without preincubation and with preincubation of the enzyme and inhibitor (5 mn), in order to test the irreversibility of the reaction. The products are tested at 6 or 8 concentrations in duplicate. The reaction mixture contains 100 μM of Nitrocefin and 50 mM sodium phosphate buffer pH7.0.
(§9) The hydrolysis speeds are measured with and without inhibitor. The concentration of inhibitor which inhibits by 50% the hydrolysis reaction of Nitrocefin by the enzyme (CI50) is determined. The data is processed using GraFit software (Erathycus Software).

β-lactamase TEM1 = biological target: T2, β-lactamase TEM1 (Escherichia coli, UniProt P62593); test: Inhibition of isolated β-lactamase Tem-1 (Nitrocefin hydrolysis); assay type: biochemical, E.coli 250HT21; details: 100 μM Nitrocefin, 50 mM sodium phosphate buffer pH7.0, 37° C.
T2 construct: The β-lactamases are isolated from bacterial strains which are resistant to penicillins and cephalosporins; endogenous in cells; host or cells: E. coli 250HT21 (natural producer; French-press lysate, 100,000 g supernatant)
T2 sequence (P62593 24-286 limits assumed): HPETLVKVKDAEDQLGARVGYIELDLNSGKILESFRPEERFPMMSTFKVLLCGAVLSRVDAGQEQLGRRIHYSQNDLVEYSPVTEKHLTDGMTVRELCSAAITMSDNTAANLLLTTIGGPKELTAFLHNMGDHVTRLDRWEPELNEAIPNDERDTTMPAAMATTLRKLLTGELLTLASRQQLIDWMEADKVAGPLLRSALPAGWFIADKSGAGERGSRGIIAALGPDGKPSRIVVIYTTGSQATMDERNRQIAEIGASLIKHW
Description: as §4, §5, §6, §7, §8, §9

Serratia 301HT6 = test: MIC, micro-dilution in liquid medium, β-lactamine with product at 5 mg/l; assay type: cell-based; details: Trial 10, 301HT6 Serratia, 24 hours at 37° C.
Description: as §1, §2, §3

[4] = system: P. aeruginosa 391HT8 (PSE); test: as above; assay type: cell-based; details: Pseudomonas aeruginosa, 24 hours at 37° C.
Description: as §1, §2, §3

[5] = system: P. aeruginosa 391HT7 (PSE); test: as above; assay type: cell-based; details: Pseudomonas aeruginosa, 24 hours at 37° C.
Description: as §1, §2, §3

Structure (SMILES): O=C(OCCc1ccncc1)[C@H]1CC[C@@H]2CN1C(=O)N2OS(=O)(=O)[O-].[Na+] (relative stereo) [Example 49, sodium salt of trans 2-(4-pyridinyl)ethyl 7-oxo-6-(sulphooxy)-1,6-diazabicyclo[3.2.1]octane-2-carboxylate]
MIC of Cefotaxime in combination with the compound (E. coli 250CF1 (Tem3); compound at 5 mg/l, Trial 4, 250CF1 E. coli Tem3): 0.08 µg/mL | MIC of Piperacillin in combination with the compound (E. coli 250CF1 (Tem3); compound at 5 mg/l, Trial 4, 250CF1 Tem3): 1.2 µg/mL | MIC of Cefotaxime in combination with the compound (E. coli 250HT21 (Tem1); compound at 5 mg/l, Trial 2, 250HT21 E. coli Tem1): <=0.04 μg/ml | MIC of Piperacillin in combination with the compound (E. coli 250HT21 (Tem1); compound at 5 mg/l, Trial 2, 250HT21 Tem1): 1.2 µg/mL | MIC of Piperacillin in combination with the compound ([1]; compound at 5 mg/l, Trial 9, 293HT6 Class): 10 µg/mL | MIC of Piperacillin in combination with the compound ([2]; compound at 5 mg/l, Trial 8, 250HT23 Class D): 10 µg/mL | MIC of Cefotaxime in combination with the compound ([2]; compound at 5 mg/l, Trial 8, 250HT23 E. coli Class D): <=0.04 μg/ml | MIC of Cefotaxime in combination with the compound (E. coli 250HT26 (SHV1); compound at 5 mg/l, Trial 6, 250HT26 E. coli SHV1): <=0.04 μg/ml | MIC of Piperacillin in combination with the compound (E. coli 250HT26 (SHV1); compound at 5 mg/l, Trial 6, 250HT26 SHV1): 20 µg/mL | MIC of Cefotaxime in combination with the compound (E. coli 250SJ1 (Tem7); compound at 5 mg/l, Trial 5, 250SJ1 E. coli Tem7): <=0.04 μg/ml | MIC of Piperacillin in combination with the compound (E. coli 250SJ1 (Tem7); compound at 5 mg/l, Trial 5, 250SJ1 Tem7): 5 µg/mL | MIC of Cefotaxime in combination with the compound (E. coli 250BE1 (SHV4); compound at 5 mg/l, Trial 7, 250BE1 E. coli SHV4): <=0.04 μg/ml | MIC of Piperacillin in combination with the compound (E. coli 250BE1 (SHV4); compound at 5 mg/l, Trial 7, 250BE1 SHV4): 20 µg/mL | MIC of Cefotaxime in combination with the compound ([3]; compound at 5 mg/l, Trial 1, 011GO66 S. aureus PeniR): 2.5 µg/mL | MIC of Piperacillin in combination with the compound ([3]; compound at 5 mg/l, Trial 1, 011GO66 peniR): 1.2 µg/mL | MIC of Cefotaxime in combination with the compound (E. coli 250HT22 (Tem2); compound at 5 mg/l, Trial 3, 250HT22 E. coli Tem2): <=0.04 μg/ml | MIC of Piperacillin in combination with the compound (E. coli 250HT22 (Tem2); compound at 5 mg/l, Trial 3, 250HT22 Tem2): 2.5 µg/mL | IC50 (β-lactamase P99): 98 nM | IC50 (β-lactamase TEM1): 8.2 nM

MIC (E. coli 250CF1 (Tem3); Trial 4, 250CF1 E. coli Tem3, read-out: MIC of Cefotaxime alone): > 40 µg/mL | MIC (E. coli 250HT21 (Tem1); Trial 2, 250HT21 E. coli Tem1, read-out: MIC of Cefotaxime alone): ≤ 0.04 µg/mL | MIC (Serratia 301HT6; read-out: MIC of Cefotaxime alone): 0.3 µg/mL | MIC ([2]; Trial 8, 250HT23 E. coli Class D, read-out: MIC of Cefotaxime alone): 0.08 µg/mL | MIC (E. coli 250HT26 (SHV1); Trial 6, 250HT26 E. coli SHV1, read-out: MIC of Cefotaxime alone): 0.6 µg/mL | MIC (E. coli 250SJ1 (Tem7); Trial 5, 250SJ1 E. coli Tem7, read-out: MIC of Cefotaxime alone): 0.08 µg/mL | MIC (E. coli 250BE1 (SHV4); Trial 7, 250BE1 E. coli SHV4, read-out: MIC of Cefotaxime alone): 40 µg/mL | MIC ([3]; Trial 1, 011GO66 S. aureus PeniR, read-out: MIC of Cefotaxime alone): 1.2 µg/mL | MIC ([4]; Trial 12, 391HT8 P. aeruginosa PSE, read-out: MIC of Cefotaxime alone): 40 µg/mL | MIC ([5]; Trial 11, 391HT7 P. aeruginosa PSE, read-out: MIC of Cefotaxime alone): 40 µg/mL | MIC (E. coli 250HT22 (Tem2); Trial 3, 250HT22 E. coli Tem2, read-out: MIC of Cefotaxime alone): ≤ 0.04 µg/mL
Structure (SMILES): CO/N=C(\C(=O)N[C@@H]1C(=O)N2C(C(=O)O)=C(COC(C)=O)CS[C@H]12)c1csc(N)n1 [Cefotaxime, cefotaxime, reference compound]
MIC ([1]; Trial 9, 293HT6 E. cloacae Class C, read-out: MIC of Cefotaxime alone): > 40 µg/mL

MIC (E. coli 250CF1 (Tem3); Trial 4, 250CF1 Tem3, read-out: MIC of Piperacillin alone): > 40 µg/mL | MIC (E. coli 250HT21 (Tem1); Trial 2, 250HT21 Tem1, read-out: MIC of Piperacillin alone): > 40 µg/mL | MIC (Serratia 301HT6; read-out: MIC of Piperacillin alone): 5 µg/mL | MIC ([2]; Trial 8, 250HT23 Class D, read-out: MIC of Piperacillin alone): > 40 µg/mL | MIC (E. coli 250HT26 (SHV1); Trial 6, 250HT26 SHV1, read-out: MIC of Piperacillin alone): > 40 µg/mL | MIC (E. coli 250SJ1 (Tem7); Trial 5, 250SJ1 Tem7, read-out: MIC of Piperacillin alone): > 40 µg/mL | MIC (E. coli 250BE1 (SHV4); Trial 7, 250BE1 SHV4, read-out: MIC of Piperacillin alone): > 40 µg/mL | MIC ([3]; Trial 1, 011GO66 peniR, read-out: MIC of Piperacillin alone): 10 µg/mL | MIC ([4]; Trial 12, 391HT8 PSE, read-out: MIC of Piperacillin alone): > 40 µg/mL | MIC ([5]; Trial 11, 391HT7 PSE, read-out: MIC of Piperacillin alone): > 40 µg/mL | MIC (E. coli 250HT22 (Tem2); Trial 3, 250HT22 Tem2, read-out: MIC of Piperacillin alone): > 40 µg/mL
Structure (SMILES): CCN1CCN(C(=O)N[C@@H](C(=O)N[C@@H]2C(=O)N3[C@@H]2SC(C)(C)[C@@H]3C(=O)O)c2ccccc2)C(=O)C1=O [Piperacillin, piperacillin, reference compound]
MIC ([1]; Trial 9, 293HT6 Class, read-out: MIC of Piperacillin alone): > 40 µg/mL

From patent US7612087B2, “Heterocyclic compounds as inhibitors of beta-lactamases” (Novexel, priority 2002, dated 2009)
